Legend:
Assay in all cases: Glasshouse herbicide test, pre- and post-emergence
Format in all cases: in vivo
[1] = test system: Avena fatua (AVEFA); details: 250 g/h, evaluated after 13 days, five-point scale; for percentage damage caused to the plant, AVEFA POST: post-emergence; for percentage damage caused to the plant, AVEFA PRE: pre-emergence
Experimental: (§1) Seeds of a variety of test species are sown in standard soil in pots (Lolium perenne (LOLPE), Setaria faberi (SETFA), Alopecurus myosuroides (ALOMY), Echinochloa crus-galli (ECHCG), Avena fatua (AVEFA)). After cultivation for one day (pre-emergence) or after 8 days cultivation (post-emergence) under controlled conditions in a glasshouse (at 24/16° C., day/night; 14 hours light; 65% humidity), the plants are sprayed with an aqueous spray solution derived from the formulation of the technical active ingredient in acetone/water (50:50) solution containing 0.5% Tween 20 (polyoxyethelyene sorbitan monolaurate, CAS RN 9005-64-5). Compounds are applied at 250 g/h. The test plants are then grown in a glasshouse under controlled conditions in a glasshouse (at 24/16° C., day/night; 14 hours light; 65% humidity) and watered twice daily. After 13 days for pre and post-emergence, the test is evaluated for the percentage damage caused to the plant. The biological activities are shown in the following table on a five-point scale (5=80-100%; 4=60-79%; 3=40-59%; 2=20-39%; 1=0-19%).

[2] = test system: Alopecurus myosuroides (ALOMY); details: 250 g/h, evaluated after 13 days, five-point scale; for percentage damage caused to the plant, ALOMY POST: post-emergence; for percentage damage caused to the plant, ALOMY PRE: pre-emergence
Experimental: as §1

[3] = test system: Lolium perenne (LOLPE); details: 250 g/h, evaluated after 13 days, five-point scale; for percentage damage caused to the plant, LOLPE POST: post-emergence; for percentage damage caused to the plant, LOLPE PRE: pre-emergence
Experimental: as §1

[4] = test system: Echinochloa crus-galli (ECHCG); details: 250 g/h, evaluated after 13 days, five-point scale; for percentage damage caused to the plant, ECHCG POST: post-emergence; for percentage damage caused to the plant, ECHCG PRE: pre-emergence
Experimental: as §1

[5] = test system: Setaria faberi (SETFA); details: 250 g/h, evaluated after 13 days, five-point scale; for percentage damage caused to the plant, SETFA POST: post-emergence; for percentage damage caused to the plant, SETFA PRE: pre-emergence
Experimental: as §1

Compound | percentage damage caused to the plant, AVEFA POST [1] | percentage damage caused to the plant, AVEFA PRE [1] | percentage damage caused to the plant, ALOMY POST [2] | percentage damage caused to the plant, ALOMY PRE [2] | percentage damage caused to the plant, LOLPE POST [3] | percentage damage caused to the plant, LOLPE PRE [3] | percentage damage caused to the plant, ECHCG POST [4] | percentage damage caused to the plant, ECHCG PRE [4] | percentage damage caused to the plant, SETFA POST [5] | percentage damage caused to the plant, SETFA PRE [5]
CC#Cc1cc(C)c(C2C(=O)CC3(CCC(C(=O)N(C)C)CC3)CC2=O)c(C)c1 (stereo not drawn) [Compound 1.001] | 5 (5=80-100%) | 5 (5=80-100%) | 5 (5=80-100%) | 5 (5=80-100%) | 5 (5=80-100%) | 5 (5=80-100%) | 5 (5=80-100%) | 5 (5=80-100%) | 5 (5=80-100%) | 5 (5=80-100%)
CC#Cc1cc(C)c(C2C(=O)CC3(CCC(C(=O)NC)CC3)CC2=O)c(C)c1 (stereo not drawn) [Compound 1.002, 3-(2,6-dimethyl-4-prop-1-ynyl-phenyl)-N-methyl-2,4-dioxo-spiro[5.5]undecane-9-carboxamide] | 5 (5=80-100%) | 5 (5=80-100%) | 5 (5=80-100%) | 5 (5=80-100%) | 5 (5=80-100%) | 5 (5=80-100%) | 5 (5=80-100%) | 5 (5=80-100%) | 5 (5=80-100%) | 5 (5=80-100%)
CC#Cc1cc(C)c(C2C(=O)CC3(CCC(C(=O)NC(=O)c4ccccn4)CC3)CC2=O)c(C)c1 (stereo not drawn) [Compound 1.003] | 5 (5=80-100%) | 4 (4=60-79%) | 5 (5=80-100%) | 4 (4=60-79%) | 5 (5=80-100%) | 4 (4=60-79%) | 5 (5=80-100%) | 5 (5=80-100%) | 5 (5=80-100%) | 5 (5=80-100%)
CC#Cc1cc(C)c(C2C(=O)CC3(CCC(C(=O)Nc4ccccn4)CC3)CC2=O)c(C)c1 (stereo not drawn) [Compound 1.004] | 5 (5=80-100%) | 4 (4=60-79%) | 4 (4=60-79%) | 3 (3=40-59%) | 4 (4=60-79%) | 4 (4=60-79%) | 4 (4=60-79%) | 5 (5=80-100%) | 4 (4=60-79%) | 5 (5=80-100%)
CC#Cc1cc(C)c(C2C(=O)CC3(CCC(C(=O)N4CCOCC4=O)CC3)CC2=O)c(C)c1 (stereo not drawn) [Compound 1.005] | 5 (5=80-100%) | 4 (4=60-79%) | 4 (4=60-79%) | 3 (3=40-59%) | 5 (5=80-100%) | 5 (5=80-100%) | 5 (5=80-100%) | 5 (5=80-100%) | 5 (5=80-100%) | 5 (5=80-100%)
CC#Cc1cc(C)c(C2C(=O)CC3(CCC(C(=O)N4CCS(=O)(=O)CC4)CC3)CC2=O)c(C)c1 (stereo not drawn) [Compound 1.007] | 5 (5=80-100%) | 3 (3=40-59%) | 5 (5=80-100%) | 3 (3=40-59%) | 5 (5=80-100%) | 5 (5=80-100%) | 5 (5=80-100%) | 5 (5=80-100%) | 5 (5=80-100%) | 4 (4=60-79%)
